Results published in patent US20100233145A1, “COMPOSITION USED AS A NUTRITIONAL SUPPLEMENT AND MEDICATION FOR THE TREATMENT OF DEGENERATIVE VISUAL DISORDERS AND INFLAMMATION” (APO PHARMACEUTICALS INTERNATIONAL B.V., priority 2006, published 2010).

Tested on: retina explants from rd1 mice
Assay: in vitro organ culture of retina explants under serum-free conditions
Assay type: cell-based, mouse
Details: for Number of rows of photoreceptors average ± SD, (n): rd/rd retina explants, glutathione 3 μg/ml, ALA 2 μg/ml, zeaxanthin 0.3 μg/ml, lutein 0.3 μg/ml, control 1.5 ± 0.3
Procedure: The in vitro-experiments were performed on an organ culture of retina explants under serum-free conditions, as described in […], Ahuja P, Holmqvist B, Azadi […], van Veen T (2001) “Mouse retina explants after long-term culture in serum-free medium.”, J Chem Neuroanat 22: 263-273. The described technique was carried out on retina explants from rd1 mice as used in the in-vivo experiments. Retinas of rd1 mice were transferred at PN3 to an in vitro culture on flat nitrocellulose membranes and were kept in […] medium for 8 and 21 days, corresponding with the age PN11 and […] of the animals. All experiments were performed paired, wherein untreated retinas were compared to retinas which were exposed to a treatment. […] In order to achieve these concentrations the correct measured quantities of stock solution as described for the in vivo experiments were added to the medium. […] The rows of photoreceptors in the outer nuclear layer (ONL) were counted in 5 slices of each composition, wherein of each slice six different sections were analysed corresponding with the sections in the in vivo experiments. The differences between treated and untreated retinas were compared statistically with Student's paired t-test, or Student's unpaired t-test, wherein differences in which p<0.05 were deemed significant.

SMILES | Number of rows of photoreceptors average ± SD, (n) | number of rows of photoreceptor cells, treated versus untreated explant (rd1 explant, FIGS. 6a and 6b)
CC1=C[C@H](O)CC(C)(C)[C@H]1/C=C/C(C)=C/C=C/C(C)=C/C=C/C=C(C)/C=C/C=C(C)/C=C/C1=C(C)C[C@@H](O)CC1(C)C [Lutein, (3R, 3′R, 6′R)-(3,c-carotene-3,3′-diol] | 2.0 ± 0.8 (n-6) rows | 
O=C(O)CCCCC1CCSS1 (stereo not drawn) [alpha lipoic acid, thioctic acid] | 1.8 ± 0.5 (n-6) rows | 
N[C@@H](CCC(=O)N[C@@H](CS)C(=O)NCC(=O)O)C(=O)O [glutathione, L-glutathione] | 2.0 ± 0.9 (n-6) rows | almost the same
CC1=C(/C=C/C(C)=C/C=C/C(C)=C/C=C/C=C(C)/C=C/C=C(C)/C=C/C2=C(C)C[C@@H](O)CC2(C)C)C(C)(C)C[C@H](O)C1 [zeaxanthin, (3R, 3′R)-β,β-carotene-3,3′-diol] | 1.9 ± 0.7 (n-6) rows | 
